Measured values published in patent US20220402935A1, “HETEROCYCLIC COMPOUND” (FIMECS, INC., priority 2019, published 2022).
pIC50: −log10 of the molar value. Counter-ions that a name gives are not always drawn.

Key:
IRAK-M = target: T1, IRAK-M (Homo sapiens, UniProt Q9Y616); experiment: IRAK-M binding inhibitory activity (KINOMEscan active site-dependent competitive assay); design: purchased Eurofins Discover X; details: for remaining binding at 1 µM: concentration of the test compound 1 μM, first symbol of cell, read-out: IRAK-M binding inhibition activity % Ctrl; for pIC50: second symbol of cell, read-out: IRAK-M binding inhibition IC50 value
T1 sequence (Q9Y616 1-596): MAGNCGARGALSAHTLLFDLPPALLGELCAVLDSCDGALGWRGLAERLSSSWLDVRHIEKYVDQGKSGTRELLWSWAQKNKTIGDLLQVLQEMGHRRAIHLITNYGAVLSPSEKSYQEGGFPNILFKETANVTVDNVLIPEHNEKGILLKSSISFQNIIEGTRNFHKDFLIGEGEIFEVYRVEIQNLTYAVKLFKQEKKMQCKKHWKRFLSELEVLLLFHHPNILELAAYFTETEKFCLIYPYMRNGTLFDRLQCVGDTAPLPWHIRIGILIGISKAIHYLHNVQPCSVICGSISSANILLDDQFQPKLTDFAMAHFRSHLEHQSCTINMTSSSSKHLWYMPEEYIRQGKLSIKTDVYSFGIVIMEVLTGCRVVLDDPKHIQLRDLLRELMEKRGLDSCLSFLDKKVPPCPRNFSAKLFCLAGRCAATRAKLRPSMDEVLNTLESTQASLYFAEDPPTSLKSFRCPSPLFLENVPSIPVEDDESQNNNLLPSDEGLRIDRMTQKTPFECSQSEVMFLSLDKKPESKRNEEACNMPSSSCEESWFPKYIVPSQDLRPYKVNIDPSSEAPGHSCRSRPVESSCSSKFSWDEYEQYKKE
Method in brief: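 Readout given as % Ctrl, with DMSO as 100% and a control compound as 0%, scaling the test compound signal between them. Binding to human IRAK-M was assessed by KINOMEscan competition at the kinase active site.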

[1] = target: T2, human XIAP_BIR3 domain purified protein (Homo sapiens, UniProt P98170); experiment: XIAP binding inhibitory activity (HTRF, b-Smac ligand); details: for pIC50: second symbol of cell, read-out: XIAP binding inhibition IC50 value; for inhibition at 3 µM: concentration of the test compound 3 μM, first symbol of cell, read-out: XIAP binding inhibition rate
T2 construct: purchased R & D
Method: Human XIAP binding inhibitory activity was measured by the Homogeneous Time Resolved Fluorescence (HTRF) method with using commercially available human XIAP_BIR3 domain purified protein (R & D) and as a ligand a Smac N-terminal peptide (AVPIAQK (SEQ ID NO: 1)) (hereinafter referred to as “b-Smac”; Peptide Research Laboratories, Inc.) biotinylated at the C-terminus according to a conventional method.
The HTRF method will be described in detail below.
The test compound diluted with a reaction buffer (25 mM HEPES Buffer containing 100 mM NaCl, 0.1% BSA, and 0.1% triton X-100, pH 7.5) was added to a 384-well white shallow bottom plate (Greiner 784076) at 1 μL/well and flash centrifuged for 30 seconds. Subsequently, human XIAP_BIR3 domain purified protein was diluted with the reaction buffer to obtain a 90 nM sample diluent, and the resultant sample diluent was added to the above-mentioned white superficial plate at 4.5 μL/well and flash centrifuged for 30 seconds. Subsequently, b-Smac diluted to 90 nM with the reaction buffer was added to the above-mentioned white superficial plat at 4.5 μL/well and flash centrifuged for 30 seconds. A mixed solution of Anti-6 HIS-Cryptate (Eu^3+ Cryptate-conjugated mouse monoclonal antibody anti-6 Histidine; cisbio) and Streptavidin-XL^eat (Highgrade XL665-conjugated streptavidin; cisbio) both diluted 100-fold with HTRF detection buffer (cisbio) at a volume ratio of 1:1 was added to the above white superficial plate at 10 μL/well. After flash centrifuging the white shallow bottom plate for 30 seconds, the white shallow bottom plate was left at room temperature for 4 hours or more in the dark. The white superficial plate after being left was subjected to fluorescence intensity measurement (excitation wavelength: 320 nm, fluorescence wavelength: 665 nm and 615 nm) by EnVision (Perkin Elmer). The binding inhibition rate (%) was calculated based on the HTRF ratio in the presence of the test compound to the HTRF ratio in the absence of the test compound (fluorescence intensity at 665 nm/fluorescence intensity at 615 nm).
The XIAP binding inhibition rate (%) of test compounds was evaluated.

T2 sequence (P98170 252-356 limits assumed): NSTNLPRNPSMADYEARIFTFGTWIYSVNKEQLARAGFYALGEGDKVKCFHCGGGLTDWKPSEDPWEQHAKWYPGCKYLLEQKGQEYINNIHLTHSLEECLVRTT

Row | Compound | remaining binding at 1 µM (IRAK-M) [%] | pIC50 [1] | pIC50 (IRAK-M) | inhibition at 3 µM [1] [%]
1 | CN[C@@H](C)C(=O)N[C@H](C(=O)N1CCN(C(=O)c2c(C(=O)NCCOCCOCCOc3cc(CN4CCC(Oc5ccnc6ccsc56)CC4)on3)c3cc(F)c(OC)cc3n2C)CC1)C1CCCCC1 [Example 13, 2-(4-((S)-2-cyclohexyl-2-((S)-2-(methylamino)propanamido)acetyl)piperazine-1-carbonyl)-5-fluoro-6-methoxy-1-methyl-N-(2-(2-(2-((5-((4-(thieno[3,2-b]pyridin-7-yloxy)piperidin-1-yl)methyl)isoxazol-3-yl)oxy)ethoxy)ethoxy)ethyl)-1H-indole-3-carboxamide] | < 25 | > 6.52 |  | 
2 | CN[C@@H](C)C(=O)N[C@H](C(=O)N1CCN(C(=O)c2c(C(=O)N(C)CCOCCOCCOc3cc(CN4CCC(Oc5ccnc6ccsc56)CC4)on3)c3cc(F)ccc3n2C)CC1)[C@H](O)C(C)C [Example 14, 5-fluoro-2-(4-((2S,3R)-3-hydroxy-4-methyl-2-((S)-2-(methylamino)propanamido)pentanoyl)piperazine-1-carbonyl)-N,1-dimethyl-N-(2-(2-(2-((5-((4-(thieno[3,2-b]pyridin-7-yloxy)piperidin-1-yl)methyl)isoxazol-3-yl)oxy)ethoxy)ethoxy)ethyl)-1H-indole-3-carboxamide] | < 25 | 4.52 to 5.52 |  | 
3 | CN[C@@H](C)C(=O)N[C@@H](Cn1cccn1)C(=O)N1CCN(C(=O)c2c(C(=O)N(C)CCOCCOCCOc3cc(CN4CCC(Oc5ccnc6ccsc56)CC4)on3)c3cc(F)ccc3n2C)CC1 [Example 15, 5-fluoro-N,1-dimethyl-2-(4-((S)-2-((S)-2-(methylamino)propanamido)-3-(1H-pyrazol-1-yl)propanoyl)piperazine-1-carbonyl)-N-(2-(2-(2-((5-((4-(thieno[3,2-b]pyridin-7-yloxy)piperidin-1-yl)methyl)isoxazol-3-yl)oxy)ethoxy)ethoxy)ethyl)-1H-indole-3-carboxamide] | 25 to 50 | 5.52 to 6.52 |  | 
4 | CN[C@@H](C)C(=O)N[C@H](C(=O)N1CCN(C(=O)c2c(C(=O)N(C)CCOCCOCCOc3cc(CN4CCC(Oc5ccnc6ccsc56)CC4)on3)c3cc(F)ccc3n2C)CC1)C(C)(C)O [Example 16, 5-fluoro-2-(4-((S)-3-hydroxy-3-methyl-2-((S)-2-(methylamino)propanamido)butanoyl)piperazine-1-carbonyl)-N,1-dimethyl-N-(2-(2-(2-((5-((4-(thieno[3,2-b]pyridin-7-yloxy)piperidin-1-yl)methyl)isoxazol-3-yl)oxy)ethoxy)ethoxy)ethyl)-1H-indole-3-carboxamide] | 25 to 50 | 5.52 to 6.52 |  | 
5 | CN[C@@H](C)C(=O)N[C@H](C(=O)N1CCN(C(=O)c2cc3cc(F)c(F)cc3n2CC(=O)N2CCC[C@@H]2COc2cc(CN3CCC(Oc4ccnc5ccsc45)CC3)on2)CC1)C1CCCCC1 [Example 31, (S)-N-((S)-1-cyclohexyl-2-(4-(5,6-difluoro-1-(2-oxo-2-((R)-2-(((5-((4-(thieno[3,2-b]pyridin-7-yloxy)piperidin-1-yl)methyl)isoxazol-3-yl)oxy)methyl)pyrrolidin-1-yl)ethyl)-1H-indole-2-carbonyl)piperazin-1-yl)-2-oxoethyl)-2-(methylamino)propanamide] | 25 to 50 |  |  | 25 to 50

Other lines, results leading:

Row | remaining binding at 1 µM (IRAK-M) [%] | pIC50 [1] | pIC50 (IRAK-M) | inhibition at 3 µM [1] [%] | Compound
6 |  | > 6.52 | 6.00 to 6.52 |  | C[C@@H]1CN(CC(=O)N2CCN(C(=O)c3cc4cc(F)c(F)cc4n3C)C[C@H]2C)[C@@H](COCCOCCOCCOc2cc(CN3CCC(Oc4ccnc5ccsc45)CC3)on2)CN1 [Example 17, 1-((R)-4-(5,6-Difluoro-1-methyl-1H-indole-2-carbonyl)-2-methylpiperazin-1-yl)-2-((2R,5R)-5-methyl-2-((2-(2-(2-((5-((4-(thieno[3,2-b]pyridin-7-yloxy)piperidin-1-yl)methyl)isoxazol-3-yl)oxy)ethoxy)ethoxy)ethoxy)methyl)piperazin-1-yl)ethan-1-one hydrochloride]
7 |  | > 6.52 | 6.00 to 6.52 |  | Cc1cc2ccc(C(=O)N3CCN(C(=O)CN4C[C@@H](C)NC[C@@H]4COCCOCCOCCOc4cc(CN5CCC(Oc6ccnc7ccsc67)CC5)on4)CC3)cn2c1 [Example 18, 2-((2R,5R)-5-methyl-2-((2-(2-(2-((5-((4-(thieno[3,2-b]pyridin-7-yloxy)piperidin-1-yl)methyl)isoxazol-3-yl)oxy)ethoxy)ethoxy)ethoxy)methyl)piperazin-1-yl)-1-(4-(2-methylindolizine-6-carbonyl)piperazin-1-yl)ethan-1-one]
8 |  | 5.52 to 6.52 | 6.00 to 6.52 |  | C[C@@H]1CN(CC(=O)N2CCN(C(=O)c3cc4cc(F)c(F)cc4n3C)C[C@H]2C)[C@@H](COCCOCCOCCOCCOc2cc(CN3CCC(Oc4ccnc5ccsc45)CC3)on2)CN1 [Example 19, 1-((R)-4-(5,6-difluoro-1-methyl-1H-indole-2-carbonyl)-2-methylpiperazin-1-yl)-2-((2R,5R)-5-methyl-2-(13-((5-((4-(thieno[3,2-b]pyridin-7-yloxy)piperidin-1-yl)methyl)isoxazol-3-yl)oxy)-2,5,8,11-tetraoxatridecyl)piperazin-1-yl)ethan-1-one]
9 | 25 to 50 | 5.52 to 6.52 |  |  | C[C@@H]1CN(CC(=O)N2CCN(C(=O)c3cc4cc(F)c(F)cc4n3C)C[C@H]2C)[C@@H](COCCOCCOc2cc(CN3CCC(Oc4ccnc5ccsc45)CC3)on2)CN1 [Example 20, 1-((R)-4-(5,6-difluoro-1-methyl-1H-indole-2-carbonyl)-2-methylpiperazin-1-yl)-2-((2R,5R)-5-methyl-2-((2-(2-((5-((4-(thieno[3,2-b]pyridin-7-yloxy)piperidin-1-yl)methyl)isoxazol-3-yl)oxy)ethoxy)ethoxy)methyl)piperazin-1-yl)ethan-1-one]
10 | 25 to 50 |  |  | 25 to 50 | CN[C@@H](C)C(=O)N[C@H](C(=O)N1CCN(C(=O)c2c(OCCOCCOCCOc3cc(CN4CCC(Oc5ccnc6ccsc56)CC4)on3)c3cc(F)c(F)cc3n2C)CC1)C1CCCCC1 [Example 21, (S)-N-((S)-1-Cyclohexyl-2-(4-(5,6-difluoro-1-methyl-3-(2-(2-(2-((5-((4-(thieno[3,2-b]pyridin-7-yloxy)piperidin-1-yl)methyl)isoxazol-3-yl)oxy)ethoxy)ethoxy)ethoxy)-1H-indole-2-carbonyl)piperazin-1-yl)-2-oxoethyl)-2-(methylamino)propanamide hydrochloride]
11 | 25 to 50 |  |  | 25 to 50 | CN[C@@H](C)C(=O)N[C@H](C(=O)N1CCN(C(=O)c2c(OCCOCCOc3cc(CN4CCC(Oc5ccnc6ccsc56)CC4)on3)c3cc(F)c(F)cc3n2C)CC1)C1CCCCC1 [Example 22, (S)-N-((S)-1-cyclohexyl-2-(4-(5,6-difluoro-1-methyl-3-(2-(2-((5-((4-(thieno[3,2-b]pyridin-7-yloxy)piperidin-1-yl)methyl)isoxazol-3-yl)oxy)ethoxy)ethoxy)-1H-indole-2-carbonyl)piperazin-1-yl)-2-oxoethyl)-2-(methylamino)propanamide]
12 | 25 to 50 |  |  | 25 to 50 | CN[C@@H](C)C(=O)N[C@H](C(=O)N1CCN(C(=O)c2c(OCCOCCOCCOCCOc3cc(CN4CCC(Oc5ccnc6ccsc56)CC4)on3)c3cc(F)c(F)cc3n2C)CC1)C1CCCCC1 [Example 23, (S)-N-((S)-1-cyclohexyl-2-(4-(5,6-difluoro-1-methyl-3-(2-(2-(2-(2-((5-((4-(thieno[3,2-b]pyridin-7-yloxy)piperidin-1-yl)methyl)isoxazol-3-yl)oxy)ethoxy)ethoxy)ethoxy)ethoxy)-1H-indole-2-carbonyl)piperazin-1-yl)-2-oxoethyl)-2-(methylamino)propanamide]
